US7320993B1, “Aryl-substituted pyridylalkane, alkene, and alkine carboxamides useful as cytostatic useful as cytostatic and immuosuppressive agents” (Astellas Deutschland GmbH, priority 1997, dated 2008)
Where two headings read alike, the source gives them in different places.

Key:
A549 cells = assay: Growth inhibition of A549 human lung carcinoma cells (sulforhodamin-B method); type: cell-based
Method: (§1) The tumor growth inhibiting activity of the substances was determined on human tumor cells in standardized in vitro test systems. In the screening tests, the substances gave IC50-values in a concentration range of 0.1 nM to 10 μM.
(§2) A549 cells derived from a human lung carcinoma plated at a density of 20,000 cells/ml in 12-well plastic dishes. Cultivation occurred in Richters IMEM-ZO nutrient medium with 5% foetal calf serum (FCS) in a tissue culture incubator with a gas mixture of 5% CO2 and 95% air at a temperature of 37° C. One day after plating, the culture medium was aspirated from the cells and replaced by fresh medium which contained the respective concentrations of the test substances. For the individual concentrations and the controls without test substances, three-fold batches were done for each. Three days after the beginning of treatment, the medium was again renewed with the test compounds. After four days of substance incubation, the test was ended and the protein amount in the individual wells was determined with the sulforhodamin-B-method (according to P. Skehan et al.: New Colorimetric Cytotoxicity Assay for Anticancer-Drug Screening. J. Natl. Cancer Inst. 82: 1107-1112, 1990). The IC50-values (defined as that concentration in which the cell growth was inhibited by 50%) was taken from the dose-response curves and given as a comparative measurement for the activity of the test compounds.

HepG2 cells = assay: Growth inhibition of HepG2 human liver carcinoma cells (sulforhodamin-B method); type: cell-based
Method: as §1
as §2, with “HepG2” for “A549”, “liver” for “lung”, “[…]” for “20,000”, “six” for “four”

[1] = test system: freshly isolated lymphocytes; assay: Immunosuppressing activity on freshly isolated spleen lymphocytes (flow cytometry, vital cells); type: cell-based; conditions: Lymphocyte, 48 h; Swiss mouse spleen lymphocytes, 2 days incubation, percentage of vital cells by flow-through cytometer
Description: Many anti-tumor agents have not only a cytotoxic effect on tumor cells, but also on the blood cell system. This leads to a weakening of the immune defense, which can, in turn, be specifically employed to suppress the rejection reaction after an organ transplantation for example. Also use of the main compounds, optionally in combination with other immunological diseases (for example, psoriasis or autoimmune diseases) seems likely. In order to test the possibility for a therapeutic use in illnesses of this type, the substance activity was tested on freshly isolated lymphocytes as follows:
The spleen of a Swiss mouse served as a lymphocyte source. The lymphocyte population was isolated from the spleen cell […] suspension over a ficoll gradient and taken up in IMEM-ZO culture medium with 0.1% dextran 70,000 and 2% foetal calf serum. The cells were plated at a density of ca. 500,000 cells/well/ml in a 12-well plate, 1 ml doubly concentrated test substance solution was pipetted per well and this was subsequently incubated in a tissue culture incubator at 37° C. and 5% CO2. After 2 days, a 1 ml-aliquot with 5 μl of the fluorescent dye solutions propidium iodide (8 mg/ml) and 3,3′-dihexyloxacarbocyanin iodide (40 μg/ml) each was added per well, and incubated for 3 minutes at room temperature. Subsequently, 10,000 cells per each sample were measured on a flow-through cytometer and the percentage amount of vital cells in the population was determined. By means of the dose-response curves, IC50-values were calculated which were also employed in the following Tables for the characterization of the individual substances: […]

THP-1 cells = assay: Growth inhibition of THP-1 human monocytic leukemia cells (WST-1 reagent); type: cell-based
Method: as §1
THP-1 cells derived from a human monocytic leukemia plated at a density of 200,000 cells/ml in 96-well plastic dishes. Cultivation occurred in RPMI 1640 nutrient medium with 10% foetal calf serum (FCS) in a tissue culture incubator with a gas mixture of 5% CO2 and 95% air at a temperature of 37° C. For the individual concentrations and the controls without test substances as well as for the background with nutrient medium but without cells, three-fold batches were done for each. After four days of substance incubation 20 μl WST-1 reagent (Boehringer Mannheim) was respectfully pipetted in each individual well. After 30 to 60 minute incubation in the tissue culture incubator at 37° C. and 5% CO2, the light extinction was measured in an ELISA reader at 450 nm wave length. The backgrounds were each subtracted from the typical measured valves. The IC50-values (defined as that concentration in which the cell growth was inhibited by 50%) was taken from the dose-response curves and given as a comparative measurement for the activity of the test compounds.

[2] = 96 h, A549 cells, four days of substance incubation, protein amount by sulforhodamin-B, read-out: IC50-value
[3] = 144 h, HepG2 cells, six days of substance incubation, protein amount by sulforhodamin-B, read-out: IC50-value

| SMILES | melting point | further results |
| --- | --- | --- |
| O=C(C=Cc1cccnc1)NCCCCNC(=O)[C@@H]1C[C@H]1c1ccccc1 (relative stereo) [Substance 250, N-[4-(trans-2-phenyl-cyclopropyl-carbonylamino)-butyl]-3-pyridin-3-yl-acrylamide] | 194 to 196 °C | – |
| O=C(C=Cc1cccnc1)NCCCCn1cnc(-c2ccccc2)c1-c1ccccc1 [Substance 63, N-[4-(4,5-diphenyl-imidazol-1-yl)-butyl]-3-pyridin-3-yl-acrylamide] | 183 °C | IC50 (HepG2 cells; [3]): 8 nM; IC50 [1]: 0.3 nM |
| O=C(C=Cc1cccnc1)NCCCCC=C(c1ccccc1)c1ccccc1 [Substance 120, N-(6,6-diphenyl-hex-5-enyl)-3-pyridin-3-yl-acrylamide] | 120 to 121 °C | IC50 (HepG2 cells; HepG2, hepatocelluar carcinoma, methods of point 1, read-out: IC50-values): 0.5 nM; IC50 (A549 cells; A549, lung carcinoma, methods of point 1, read-out: IC50-values): 2 nM; IC50 (THP-1 cells; 96 h, THP-1 cells, four days of substance incubation, WST-1, extinction at 450 nm, read-out: IC50-value): 0.2 nM; IC50 (THP-1 cells; THP-1, monocytic leukemia, methods of point 1, read-out: IC50-values): 0.2 nM; IC50 [1]: 0.5 nM |
| CN(CCCCNC(=O)C=Cc1cccnc1)CCN(C)C(c1ccccc1)c1ccccc1 [Substance 193, N-(4-{[2-(benzhydryl-methyl-amino)-ethyl]-methyl-amino}-butyl)-3-pyridin-3-yl-acrylamide] | 89 to 91 °C | IC50 (A549 cells; [2]): 1000 nM |
| O=C(C=Cc1cccnc1)NCCCCN1CCc2ccccc2C(c2ccccc2)C1 (centres unmarked) [Substance 207, N-[4-(1-phenyl-1,2,4,5-tetrahydrobenzo[d]azepin-3-yl)-butyl]-3-pyridin-3-yl-acrylamide] | 92 to 94 °C | – |
| O=C(C=Cc1cccnc1)NCCCCNC(=O)N(c1ccccc1)c1ccccc1 [Substance 268, N-[4-(3,3-diphenyl-ureido)-butyl]-3-pyridin-3-yl-acrylamide] | 123 to 125 °C | – |
| O=C(C=Cc1cccnc1)NCCCCCCNC(=O)N1c2ccccc2CCc2ccccc21 [Substance 295, N-[6-(10,11-dihydro-dibenzo[b,f]azepin-5-yl-carbonylamino)-hexyl]-3-pyridin-3-yl-acrylamide] | 97 to 99 °C | – |
| Cc1ccc(S(=O)(=O)NCCCCCCNC(=O)C=Cc2cccnc2)cc1 [Substance 310, 3-Pyridin-3-yl-N-[6-(tosylamino)-hexyl]-acrylamide] | 91 to 93 °C | – |

More lines, main results first:

| melting point | SMILES | further results |
| --- | --- | --- |
| 61 to 63 °C | O=C(C=Cc1cccnc1)NCCCCCCCc1ccccc1 [Substance 3, N-(7-phenyl-heptyl)-3-pyridin-3-yl-acrylamide] | IC50 (A549 cells; [2]): 8000 nM |
| 157 to 159 °C | O=C(C=Cc1cccnc1)NCCCCC(O)(c1ccccc1)c1ccccc1 [Substance 27, N-(5-hydroxy-5,5-diphenyl-pentyl)-3-pyridin-3-yl-acrylamide] | IC50 (HepG2 cells; [3]): 40 nM |
| 145 to 147 °C | O=C(C=Cc1cccnc1)NCCCCCC(O)(c1ccccc1)c1ccccc1 [Substance 31, N-(6-hydroxy-6,6-diphenyl-hexyl)-3-pyridin-3-yl-acrylamide] | – |
| 139 to 140 °C | O=C(C=Cc1cccnc1)NCCCCCCCC(O)(c1ccccc1)c1ccccc1 [Substance 41, N-(8-hydroxy-8,8-diphenyloctyl)-3-pyridin-3-yl-acrylamide] | – |
| 101 to 102 °C | O=C(C=Cc1cccnc1)NCCCCNC(c1ccccc1)c1ccccc1 [Substance 187, N-[4-(benzhydryl-amino)-butyl]-3-pyridin-3-yl-acrylamide] | IC50 (HepG2 cells; [3]): 200 nM; IC50 (A549 cells; [2]): 400 nM |
| 171 to 172 °C | O=C(C=Cc1cccnc1)NCCCCNC(=O)C(c1ccccc1)c1ccccc1 [Substance 247, N-(4-diphenylacetylamino-butyl)-3-pyridin-3-yl-acrylamide] | IC50 (A549 cells; [2]): 2000 nM; IC50 [1]: 80 nM |
| 105 to 107 °C | O=C(C=Cc1cccnc1)NCCCCCCNC(=O)N(c1ccccc1)c1ccccc1 [Substance 270, N-[6-(3,3-diphenyl-ureido)-hexyl]-3-pyridin-3-yl-acrylamide] | – |
